These are literature values, as cited in PMC7357848 (Journal of Chemical Information and Modeling, 2020).

In this series the test system is hERG. The note with it: IC50 with SP over IC50 with Protocol-O; ref 5 (Yao et al. 2005).

With BeKm-1, the IC50 ratio is 10.3.
